For twelve compounds, Ki and Activity results are on record in ChEMBL document CHEMBL3632486, “Interaction of carbonic anhydrase isozymes I, II, and IX with some pyridine and phenol hydrazinecarbothioamide derivatives” (Bioorg Med Chem Lett, 2015).

A word on the Ki: it is the equilibrium dissociation constant of an inhibitor or competing ligand from its target. A low value points to a stronger hold on the target.

The target of one test is Carbonic anhydrase 2 (Homo sapiens, UniProt P00918). The experiment in a line: Inhibition of human carbonic anhydrase 2 incubated for 15 mins prior to testing by stopped flow CO2 hydration assay.
The target in test [1] is T1, Carbonic anhydrase 9 (Homo sapiens, UniProt Q16790).
Description: Inhibition of human carbonic anhydrase 9 incubated for 15 mins prior to testing by stopped flow CO2 hydration assay
The next test has as its target Carbonic anhydrase 1 (Homo sapiens, UniProt P00915). The experiment in a line: Inhibition of human carbonic anhydrase 1 incubated for 15 mins prior to testing by stopped flow CO2 hydration assay.
Test [2] deals with T1, Carbonic anhydrase 9. The test can be described thus: Activation of human carbonic anhydrase 9 incubated for 15 mins prior to testing by stopped flow CO2 hydration assay.

Chain of Carbonic anhydrase 1 (P00915 whole entry): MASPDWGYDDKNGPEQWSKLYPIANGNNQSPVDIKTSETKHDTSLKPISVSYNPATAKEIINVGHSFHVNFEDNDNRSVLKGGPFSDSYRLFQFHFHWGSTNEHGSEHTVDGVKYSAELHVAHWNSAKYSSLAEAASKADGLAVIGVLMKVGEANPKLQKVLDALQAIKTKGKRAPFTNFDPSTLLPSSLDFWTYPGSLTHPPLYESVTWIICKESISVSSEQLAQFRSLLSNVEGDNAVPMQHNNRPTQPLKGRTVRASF

Turning to `Cc1ccc(NC(=S)NNC(=O)c2ccccc2O)cc1`, at Carbonic anhydrase 2, the Ki is over 10000 nM.

Turning to `O=C(NNC(=S)Nc1ccccc1)c1ccccc1O`, the inhibitory constant (Ki) at Carbonic anhydrase 2 is over 10000 nM; on Carbonic anhydrase 9 [1] it was 1220 nM.

For the compound `C=CCNC(=S)NNC(=O)c1ccncc1`, the figures for the Ki on Carbonic anhydrase 1 and on Carbonic anhydrase 9 [1] were 871 nM and 970 nM, respectively. This compound had an Activity on Carbonic anhydrase 9 [2] of 12.3 µM.

Compound `Cc1ccc(NC(=S)NNC(=O)c2ccncc2)cc1` showed an Activity on Carbonic anhydrase 9 [2] of 2.57 µM. This compound also yielded a Ki on Carbonic anhydrase 9 [1] of 1120 nM.

On to `O=C(NNC(=S)NCc1ccccc1)c1ccncc1`, for which, at Carbonic anhydrase 9 [2], the Activity turned out to be 0.81 µM. For the same compound, the affinity on Carbonic anhydrase 9 [1] corresponds to a Ki of 964 nM.

With `NC(=S)NNC(=O)c1ccccc1O`, the inhibition constant (Ki) on Carbonic anhydrase 2 is over 10000 nM; at Carbonic anhydrase 9 [1] it was 1010 nM.

Regarding `CCNC(=S)NNC(=O)c1ccccc1O`, the results for the Ki on Carbonic anhydrase 2 and at Carbonic anhydrase 9 [1] were over 10000 nM and 878 nM, respectively.

Turning to `O=C(NNC(=S)NCc1ccccc1)c1ccccc1O`, the Ki on Carbonic anhydrase 2 is over 10000 nM; at Carbonic anhydrase 9 [1], 980 nM.

In the case of `C=CCNC(=S)NNC(=O)c1ccccc1O`, the Ki on Carbonic anhydrase 2 was over 10000 nM; on Carbonic anhydrase 9 [1] it was 760 nM.

Regarding `O=C(NNC(=S)Nc1ccccc1)c1ccncc1`, the values for the Ki on Carbonic anhydrase 1 and on Carbonic anhydrase 9 [1] were 34.1 nM and 317 nM, respectively. In addition, at Carbonic anhydrase 9 [2], the Activity came to 1.42 µM.

`NC(=S)NNC(=O)c1ccncc1` showed an Activity on Carbonic anhydrase 9 [2] of 3.61 µM.

For the compound `CCN=C(S)NNC(=O)c1ccncc1`, the Ki on Carbonic anhydrase 1 amounted to 96.9 nM; on Carbonic anhydrase 9 [1] it was 884 nM. Besides, at Carbonic anhydrase 9 [2], the Activity came to 12.5 µM.
